Test results published in patent US5085739A, “Separation of the propyl alcohols from water by azeotropic or extractive distillation” (priority 1991, dated 1992).
Structures can show the parent of a compound that is named as a salt.

What was measured:
[1] = vapor-liquid equilibrium still, n-propanol-water azeotrope with agent; settings: for Relative Volatility: n-propanol from water; for liquid composition, n-propanol / liquid composition, water / vapor composition, n-propanol / vapor composition, water: butoxypropanol four hours, n-amyl acetate 14 hours
From the text: The data in Table 2, 3, 5, 6 and 7 were obtained in a vapor-liquid equilibrium still. In every case, the starting material was the propanol-water azeotrope. The relative volatilities are listed for each of the agents.

[2] = vapor-liquid equilibrium still, isopropanol-water azeotrope with agent; settings: for Relative Volatility: isopropanol from water, agent in vapor-liquid equilibrium still, water as overhead
From the text: In every case, the starting material was the propanol-water azeotrope. The relative volatilities are listed for each of the agents.

[3] = glass perforated plate rectification column, n-propanol from water; format: physicochemical
Protocol: A solution comprising 288 grams of n-propanol and 112 grams of water was placed in the stillpot of the perforated plate column. When refluxing began, an extractive agent comprising n-butyl acetate was pumped into the column at a rate of 15/min/ml. The temperature of the extractive agent as it entered the column was 85° C. After establishing the feed rate of the extractive agent, the heat input to the n-propanol-water in the stillpot was adjusted to give a total reflux rate of 40 ml/min. After two hours of operation, the overhead and bottoms samples of approximately two ml. were collected and analysed.
Two hundred grams of the n-propanol-water azeotrope and 85 grams of n-amyl formate as the azeotrope former were charged to the 7.3 theoretical plate column and refluxed at total reflux for four hours.

[4] = glass perforated plate rectification column (7.3 theoretical plates), isopropanol from water; format: physicochemical; settings: for Relative Volatility: extractive mode, 2 hrs, 7.3 theoretical plates; for Weight % Isopropanol, Bottoms / Weight % Water, Bottoms / Weight % Isopropanol, Overhead / Weight % Water, Overhead: rectification column
Protocol: A solution comprising 175 grams of isopropanol and 25 grams of water was placed in the stillpot of a 7.3 theoretical plate perforated plate column. […] The temperature of the extractive agent as it entered the column was 75° C. After establishing the feed rate of the extractive agent, the heat input to the isopropanol-water in the stillpot was adjusted to give a total reflux rate of 40 ml/min.
After two hours of operation, the overhead and bottoms samples of approximately two ml. were collected and analysed by gas chromatography.

[5] = as above; format: physicochemical; settings: azeotropic
[6] = extractive distn., water as overhead
[7] = extractive distn., * brings n-propanol out as overhead

OCCCCCO [1,5-Pentanediol]
Relative Volatility [1, 6]: 1.22 | Relative Volatility [2]: 1.22

OCCCCCCO [1,6-Hexanediol]
Relative Volatility [1, 6]: 1.31 | Relative Volatility ([3]; extractive mode, 2 hrs): 1.11 | Weight % Water, Bottoms ([3]; rectification column): 23.6 Weight % | Weight % n-Propanol, Bottoms ([3]; rectification column): 76.4 Weight % | Weight % Water, Overhead ([3]; rectification column, overhead): 38.6 Weight % | Weight % n-Propanol, Overhead ([3]; rectification column, overhead): 61.4 Weight %

CCCCO [1-Butanol]
Relative Volatility [4]: 1.20 | Weight % Isopropanol, Bottoms [4]: 87.9 Weight % | Weight % Water, Bottoms [4]: 12.1 Weight % | Weight % Isopropanol, Overhead [4]: 65.3 Weight % | Weight % Water, Overhead [4]: 34.7 Weight %

CCC(C)O (centres unmarked) [2-Butanol]
Relative Volatility [2]: 1.36

CCCCCC(C)=O [2-Heptanone]
Relative Volatility [1, 6]: 1.88 | Relative Volatility [2]: 1.32

CCCCCCC(C)O (centres unmarked) [2-Octanol]
Relative Volatility [2]: 1.30

CCCC(C)=O [2-Pentanone]
Relative Volatility [2]: 1.38

CCCCC(=O)CC [3-Heptanone]
Relative Volatility ([1]; azeotropic distn.): 4.3

CC(C)CCO [3-Methyl-1-butanol]
Relative Volatility [2]: 1.54

CC(=O)C(C)C [3-Methyl-2-butanone]
Relative Volatility [2]: 1.24

CCCCCC(=O)CC [3-Octanone]
Relative Volatility [2]: 1.22

CC(=O)CC(C)C [4-Methyl-2-pentanone]
Relative Volatility [4]: 1.45 | Weight % Isopropanol, Bottoms [4]: 82.3 Weight % | Weight % Water, Bottoms [4]: 17.7 Weight % | Weight % Isopropanol, Overhead [4]: 23.2 Weight % | Weight % Water, Overhead [4]: 76.8 Weight % | Relative Volatility ([1]; azeotropic distn.): 1.3 | Relative Volatility ([3]; extractive mode, 2 hrs): 1.45 | Relative Volatility [2]: 1.36

CCCCCOC=O [Amyl Formate]
Relative Volatility ([3]; azeotropic mode, 4 hrs): 1.23 | Weight % Water, Bottoms ([3]; rectification column): 7.3 Weight % | Weight % n-Propanol, Bottoms ([3]; rectification column): 25.7 Weight % | Weight % Agent, Bottoms ([3]; rectification column, azeotropic): 67.0 Weight % | Weight % Agent, Bottoms ([3]; rectification column, azeotropic, listed as n-amyl formate): 67 Weight % | Weight % Water, Overhead ([3]; rectification column, overhead): 40.3 Weight % | Weight % n-Propanol, Overhead ([3]; rectification column, overhead): 29.9 Weight % | Weight % Agent, Overhead ([3]; rectification column, overhead, azeotropic): 29.8 Weight %

COc1ccccc1 [Anisole]
Relative Volatility [1, 6]: 2.0 | Relative Volatility [2]: 1.54

N#Cc1ccccc1 [Benzonitrile]
Relative Volatility ([1]; azeotropic distn.): 1.5

CCCCOC(=O)c1ccccc1 [Butyl benzoate]
Relative Volatility [2]: 1.36

CCCCOC(=O)CCC [Butyl butyrate]
Relative Volatility [2]: 1.39

OC1CCCCCCCCCCC1 [Cyclododecanol]
Relative Volatility [1, 6]: 1.43

CCOCCOCCOC(C)=O [Diethylene glycol ethyl ether acetate]
Relative Volatility [1, 6]: 1.3

OCCOCCO [Diethylene glycol]
Relative Volatility [2]: 1.80

CCCC(=O)OCC [Ethyl butyrate]
Relative Volatility [2]: 1.46

O=C1OCCO1 [Ethylene carbonate]
Relative Volatility [1, 7]: 1.3

CCOCCOC(C)=O [Ethylene glycol ethyl ether acetate]
Relative Volatility [1, 6]: 1.37

COCCO [Ethylene glycol methyl ether]
Relative Volatility [2]: 1.60

OCCO [Ethylene glycol]
Relative Volatility [1, 7]: 1.7

CCCCCCOC(C)=O [Hexyl acetate]
Relative Volatility ([1]; azeotropic distn.): 3.4 | Relative Volatility [2]: 1.31

CCCCCCO [Hexyl alcohol]
Relative Volatility [1, 6]: 1.44 | Relative Volatility [2]: 1.32

CC(=O)OCC(C)C [Isobutyl acetate]
Weight % Water, Bottoms ([3]; rectification column): 58.8 Weight % | Weight % n-Propanol, Bottoms ([3]; rectification column): 41.2 Weight % | Weight % Water, Overhead ([3]; rectification column, overhead): 26.1 Weight % | Weight % n-Propanol, Overhead ([3]; rectification column, overhead): 73.9 Weight %

CCCC(=O)OCC(C)C [Isobutyl butyrate]
Relative Volatility ([1]; azeotropic distn.): 1.2

CC(C)COC(=O)C(C)C [Isobutyl isobutyrate]
Relative Volatility [2]: 1.61

CC(C)CCCCCCCO [Isodecyl alcohol]
Relative Volatility [1, 6]: 1.30

CC(=O)C=C(C)C [Mesityl oxide]
Relative Volatility ([1]; azeotropic distn.): 1.2 | Relative Volatility [2]: 1.47

COC(=O)c1ccccc1 [Methyl benzoate]
Relative Volatility [1, 6]: 1.70 | Relative Volatility [2]: 1.50

CC(=O)CCC(C)C [Methyl isoamyl ketone]
Relative Volatility [2]: 1.32

O=[N+]([O-])c1ccccc1 [Nitrobenzene]
Relative Volatility [1, 6]: 1.21 | Relative Volatility [2]: 1.32

CCC(=O)c1ccccc1 [Propiophenone]
Relative Volatility [2]: 1.31

CCCOCC(C)O (centres unmarked) [Propoxypropanol]
Relative Volatility ([3]; extractive mode, 2 hrs): 1.21 | Weight % Water, Bottoms ([3]; rectification column): 30 Weight % | Weight % n-Propanol, Bottoms ([3]; rectification column): 70 Weight % | Weight % Water, Overhead ([3]; rectification column, overhead): 63.5 Weight % | Weight % n-Propanol, Overhead ([3]; rectification column, overhead): 36.5 Weight %

CCCOC(=O)CCC [Propyl butyrate]
Relative Volatility ([1]; azeotropic distn.): 3.6 | Relative Volatility [2]: 1.72 | liquid composition, isopropanol ([2]; refluxed six hours): 85.3% | liquid composition, water ([2]; refluxed six hours): 14.7% | vapor composition, isopropanol ([2]; refluxed six hours): 77.1% | vapor composition, water ([2]; refluxed six hours): 22.9%

CC(C)COCC(C)O (centres unmarked) [Propylene glycol isobutyl ether]
Relative Volatility [2]: 1.29

CCCCCCCCCCCO [Undecyl alcohol]
Relative Volatility [1, 6]: 1.39

C=COCCCC [Vinyl n-butyl ether]
Weight % Isopropanol, Bottoms [4]: 80.3 Weight % | Weight % Water, Bottoms [4]: 5.1 Weight % | Weight % Isopropanol, Overhead [4]: 28.5 Weight % | Weight % Water, Overhead [4]: 14.5 Weight % | Weight % Agent, Bottoms ([5]; bottoms): 14.6 Weight % | Weight % Agent, Overhead ([5]; overhead): 57.0 Weight %

CC(O)c1ccccc1 (stereo not drawn) [alpha-Methyl benzyl alcohol]
Relative Volatility [1, 6]: 1.48

CCCCCOC(C)=O [n-Amyl acetate]
liquid composition, n-propanol [1]: 67.3% | liquid composition, water [1]: 32.7% | vapor composition, n-propanol [1]: 58% | vapor composition, water [1]: 42% | Relative Volatility ([1]; azeotropic distn.): 1.5 | Relative Volatility [2]: 1.30

CCCCOC(C)=O [n-Butyl acetate]
Relative Volatility [1, 7]: 1.7 | Relative Volatility ([3]; extractive mode, 2 hrs, * n-propanol comes off as overhead): 1.32 | Weight % Water, Bottoms ([3]; rectification column): 73.7 Weight % | Weight % n-Propanol, Bottoms ([3]; rectification column): 26.3 Weight % | Weight % Water, Overhead ([3]; rectification column, overhead): 27.7 Weight % | Weight % n-Propanol, Overhead ([3]; rectification column, overhead): 72.3 Weight % | Relative Volatility [2]: 1.28

CCCCCCCCCCO [n-Decanol]
Relative Volatility [2]: 1.38

CCCCCCOC=O [n-Hexyl formate]
Relative Volatility [2]: 1.52

Butoxypropanol
liquid composition, n-propanol [1]: 77.2% | liquid composition, water [1]: 22.8% | vapor composition, n-propanol [1]: 60.5% | vapor composition, water [1]: 39.5% | Weight % Water, Bottoms ([3]; rectification column): 15.9 Weight % | Weight % n-Propanol, Bottoms ([3]; rectification column): 84.1 Weight % | Weight % Water, Overhead ([3]; rectification column, overhead): 50.1 Weight % | Weight % n-Propanol, Overhead ([3]; rectification column, overhead): 49.9 Weight %
